Measurements reported in patent US20150307520A1, “NOVEL HETEROARYL AND HETEROCYCLE COMPOUNDS, COMPOSITIONS AND METHODS THEREOF” (HUTCHISON MEDIPHARMA LIMITED, priority 2012, published 2015).
pIC50: −log10 of the molar value. Each block holds one compound with its values, some of them ahead of it.

Tests used:
Type in all cases: biochemical
p110α/p85α = p110α/p85α (Homo sapiens, UniProt P42336); assay: Transcreener KINASE Assay, kinase inhibition of p110α/p85α; settings: for PI3Kα IH % @ 1 uM: 1 uM test compound
Outline: (§1)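 ADP production was read by fluorescence polarization immunoassay (60 min detection step) after an 80 min room-temperature reaction of p110/p85α enzyme, compound in 2% DMSO, and PIP2/ATP solution (30 uM/10 uM as added) in HEPES buffer with MgCl2 and DTT. IC50s came from inhibition versus the DMSO control.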

p110δ/p85α = p110δ/p85α (Homo sapiens, UniProt O00329); assay: Transcreener KINASE Assay, kinase inhibition of p110δ/p85α; settings: for PI3Kδ IH % @ 1 uM: 1 uM test compound; for pIC50: read-out: PI3Kδ IC50
Outline: as §1

p110β/p85α = p110β/p85α (Homo sapiens, UniProt P42338); assay: Transcreener KINASE Assay, kinase inhibition of p110β/p85α; settings: for PI3Kβ IH % @ 1 uM: 1 uM test compound; for pIC50: read-out: PI3Kβ IC50
Outline: as §1

p110γ = p110γ (Homo sapiens, UniProt P48736); assay: Transcreener KINASE Assay, kinase inhibition of p110γ; settings: for PI3Kγ IH % @ 1 uM: 1 uM test compound; for pIC50: read-out: PI3Kγ IC50
Outline: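 Steps: enzyme reaction with compound, 80 min at room temperature; add ADP detection reagent, incubate 60 min at room temperature; read fluorescence polarization. Inhibition and IC50 values are derived from the ADP signal.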

Chain of p110α/p85α (P42336 whole entry): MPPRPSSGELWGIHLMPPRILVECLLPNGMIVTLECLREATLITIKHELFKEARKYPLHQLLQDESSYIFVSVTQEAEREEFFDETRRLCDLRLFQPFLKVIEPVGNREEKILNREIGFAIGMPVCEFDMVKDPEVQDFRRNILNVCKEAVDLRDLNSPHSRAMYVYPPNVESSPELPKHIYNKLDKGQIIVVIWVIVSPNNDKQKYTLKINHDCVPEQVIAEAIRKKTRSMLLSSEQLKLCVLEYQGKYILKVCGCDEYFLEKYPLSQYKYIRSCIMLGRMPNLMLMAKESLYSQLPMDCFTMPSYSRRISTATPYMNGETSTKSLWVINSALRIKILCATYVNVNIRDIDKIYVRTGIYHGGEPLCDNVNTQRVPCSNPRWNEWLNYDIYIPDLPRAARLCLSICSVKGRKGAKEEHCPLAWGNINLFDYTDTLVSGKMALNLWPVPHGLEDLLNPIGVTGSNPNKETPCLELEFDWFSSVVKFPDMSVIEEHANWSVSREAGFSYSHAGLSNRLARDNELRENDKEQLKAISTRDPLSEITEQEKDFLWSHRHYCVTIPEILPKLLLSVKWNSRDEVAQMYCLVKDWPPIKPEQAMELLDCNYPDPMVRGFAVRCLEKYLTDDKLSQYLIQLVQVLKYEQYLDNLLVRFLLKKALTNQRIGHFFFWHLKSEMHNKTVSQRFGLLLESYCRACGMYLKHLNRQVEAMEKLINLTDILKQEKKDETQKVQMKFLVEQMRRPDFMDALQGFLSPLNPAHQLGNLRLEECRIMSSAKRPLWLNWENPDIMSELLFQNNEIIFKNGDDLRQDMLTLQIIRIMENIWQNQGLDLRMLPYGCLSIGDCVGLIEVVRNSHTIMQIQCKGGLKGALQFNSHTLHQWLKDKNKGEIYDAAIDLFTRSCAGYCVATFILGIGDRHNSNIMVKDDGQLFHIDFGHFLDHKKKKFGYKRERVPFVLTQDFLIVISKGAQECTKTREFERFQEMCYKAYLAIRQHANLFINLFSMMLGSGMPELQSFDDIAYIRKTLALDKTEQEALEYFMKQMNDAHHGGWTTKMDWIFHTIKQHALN
Chain of p110α/p85α (P27986 whole entry partner): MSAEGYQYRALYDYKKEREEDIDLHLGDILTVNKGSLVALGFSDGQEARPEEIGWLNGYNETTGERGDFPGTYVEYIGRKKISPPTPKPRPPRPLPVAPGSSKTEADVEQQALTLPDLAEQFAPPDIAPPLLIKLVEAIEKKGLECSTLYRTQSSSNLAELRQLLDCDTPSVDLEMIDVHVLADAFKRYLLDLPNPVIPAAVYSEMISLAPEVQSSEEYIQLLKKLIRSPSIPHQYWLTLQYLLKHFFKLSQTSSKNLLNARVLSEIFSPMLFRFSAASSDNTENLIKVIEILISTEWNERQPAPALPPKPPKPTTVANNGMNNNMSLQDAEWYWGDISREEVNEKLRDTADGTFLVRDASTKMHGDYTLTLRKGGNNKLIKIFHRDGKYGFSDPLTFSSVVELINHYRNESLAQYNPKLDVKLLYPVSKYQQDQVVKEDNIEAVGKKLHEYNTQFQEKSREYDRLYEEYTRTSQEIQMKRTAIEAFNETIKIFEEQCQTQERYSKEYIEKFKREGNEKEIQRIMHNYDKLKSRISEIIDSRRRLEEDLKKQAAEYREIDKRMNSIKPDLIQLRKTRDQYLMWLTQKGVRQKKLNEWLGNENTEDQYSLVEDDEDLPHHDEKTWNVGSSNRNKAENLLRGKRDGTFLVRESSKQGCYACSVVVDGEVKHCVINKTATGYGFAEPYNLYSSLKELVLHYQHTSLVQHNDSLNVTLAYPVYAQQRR
Chain of p110γ (P48736 whole entry): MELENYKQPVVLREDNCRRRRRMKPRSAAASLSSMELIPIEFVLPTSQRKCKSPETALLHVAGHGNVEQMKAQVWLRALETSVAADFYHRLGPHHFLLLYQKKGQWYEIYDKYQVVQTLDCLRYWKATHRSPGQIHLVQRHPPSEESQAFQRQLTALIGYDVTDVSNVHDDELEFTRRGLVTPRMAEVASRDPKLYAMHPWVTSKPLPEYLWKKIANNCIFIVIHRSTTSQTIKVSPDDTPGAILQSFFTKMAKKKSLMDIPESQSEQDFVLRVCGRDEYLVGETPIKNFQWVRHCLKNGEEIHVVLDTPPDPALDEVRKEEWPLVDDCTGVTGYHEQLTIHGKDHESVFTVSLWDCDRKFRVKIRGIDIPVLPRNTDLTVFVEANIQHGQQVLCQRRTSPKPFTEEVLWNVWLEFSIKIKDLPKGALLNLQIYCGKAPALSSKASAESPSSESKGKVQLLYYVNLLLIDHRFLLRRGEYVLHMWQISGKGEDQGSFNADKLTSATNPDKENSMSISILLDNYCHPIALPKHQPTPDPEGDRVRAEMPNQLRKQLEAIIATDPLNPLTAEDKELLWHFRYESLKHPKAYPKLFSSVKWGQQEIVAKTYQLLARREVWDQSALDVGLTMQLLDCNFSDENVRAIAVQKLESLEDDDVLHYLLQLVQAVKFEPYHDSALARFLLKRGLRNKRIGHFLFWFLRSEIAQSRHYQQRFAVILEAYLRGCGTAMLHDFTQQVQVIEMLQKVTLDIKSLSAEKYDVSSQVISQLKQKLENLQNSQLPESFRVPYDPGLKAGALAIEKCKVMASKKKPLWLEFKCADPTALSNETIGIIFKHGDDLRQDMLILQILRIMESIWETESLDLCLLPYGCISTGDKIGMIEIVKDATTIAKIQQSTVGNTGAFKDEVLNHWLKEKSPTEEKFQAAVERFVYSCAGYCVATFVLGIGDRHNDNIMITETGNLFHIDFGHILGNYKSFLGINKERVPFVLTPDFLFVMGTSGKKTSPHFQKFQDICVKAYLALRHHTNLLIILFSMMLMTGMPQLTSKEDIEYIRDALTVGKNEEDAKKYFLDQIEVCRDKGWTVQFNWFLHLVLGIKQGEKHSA
Chain of p110β/p85α (P42338 whole entry): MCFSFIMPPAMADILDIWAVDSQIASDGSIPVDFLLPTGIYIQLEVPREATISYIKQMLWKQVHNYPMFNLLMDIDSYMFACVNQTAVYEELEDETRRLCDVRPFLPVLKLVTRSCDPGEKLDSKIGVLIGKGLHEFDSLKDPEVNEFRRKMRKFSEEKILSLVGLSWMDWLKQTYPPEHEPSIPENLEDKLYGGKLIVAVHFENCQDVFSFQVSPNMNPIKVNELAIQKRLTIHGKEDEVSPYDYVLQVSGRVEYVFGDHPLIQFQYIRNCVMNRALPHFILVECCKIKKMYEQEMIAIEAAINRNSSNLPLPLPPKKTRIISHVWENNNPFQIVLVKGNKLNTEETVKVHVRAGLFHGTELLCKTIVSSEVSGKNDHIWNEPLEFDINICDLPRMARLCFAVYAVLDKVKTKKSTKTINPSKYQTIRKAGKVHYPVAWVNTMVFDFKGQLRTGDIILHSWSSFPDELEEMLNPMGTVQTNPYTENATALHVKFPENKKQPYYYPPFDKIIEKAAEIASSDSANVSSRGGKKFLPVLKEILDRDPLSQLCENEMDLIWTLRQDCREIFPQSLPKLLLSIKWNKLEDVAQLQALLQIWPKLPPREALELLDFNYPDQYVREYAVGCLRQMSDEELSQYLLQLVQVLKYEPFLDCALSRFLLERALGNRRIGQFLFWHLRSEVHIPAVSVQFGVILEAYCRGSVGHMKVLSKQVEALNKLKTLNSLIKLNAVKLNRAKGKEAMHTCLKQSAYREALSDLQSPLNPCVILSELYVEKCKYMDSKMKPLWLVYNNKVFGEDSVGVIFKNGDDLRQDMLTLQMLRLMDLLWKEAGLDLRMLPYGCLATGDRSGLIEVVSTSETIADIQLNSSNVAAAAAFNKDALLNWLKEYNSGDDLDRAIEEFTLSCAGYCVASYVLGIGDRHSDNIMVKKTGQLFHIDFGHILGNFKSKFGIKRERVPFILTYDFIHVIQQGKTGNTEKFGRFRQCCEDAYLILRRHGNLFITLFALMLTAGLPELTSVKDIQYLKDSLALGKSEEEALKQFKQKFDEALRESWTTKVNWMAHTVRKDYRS
Chain of p110β/p85α (P27986 2-724 partner): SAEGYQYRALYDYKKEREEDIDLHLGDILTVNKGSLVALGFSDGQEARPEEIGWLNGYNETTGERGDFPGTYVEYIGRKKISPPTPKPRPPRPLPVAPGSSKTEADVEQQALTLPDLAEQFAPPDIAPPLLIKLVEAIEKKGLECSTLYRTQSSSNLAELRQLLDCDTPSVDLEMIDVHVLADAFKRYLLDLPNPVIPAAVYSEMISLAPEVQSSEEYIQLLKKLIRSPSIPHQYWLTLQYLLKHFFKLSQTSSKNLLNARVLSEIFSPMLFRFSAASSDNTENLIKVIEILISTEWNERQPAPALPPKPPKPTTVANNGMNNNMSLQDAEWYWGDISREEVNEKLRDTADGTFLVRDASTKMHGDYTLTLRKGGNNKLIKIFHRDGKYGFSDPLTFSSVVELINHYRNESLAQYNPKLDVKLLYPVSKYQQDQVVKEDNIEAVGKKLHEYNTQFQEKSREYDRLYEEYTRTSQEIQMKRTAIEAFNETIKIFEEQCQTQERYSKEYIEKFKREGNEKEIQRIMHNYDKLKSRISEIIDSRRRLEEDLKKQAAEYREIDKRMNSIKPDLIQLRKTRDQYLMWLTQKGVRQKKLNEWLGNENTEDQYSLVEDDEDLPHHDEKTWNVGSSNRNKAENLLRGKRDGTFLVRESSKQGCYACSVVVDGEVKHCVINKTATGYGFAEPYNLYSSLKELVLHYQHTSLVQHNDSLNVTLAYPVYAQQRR

SMILES: CCC(Nc1ncnc2[nH]cnc12)c1cn2ccc(Cl)c2c(=O)n1-c1cccc(F)c1 (stereo not drawn) [Compound 85, 3-(1-(9H-purin-6-ylamino)propyl)-8-chloro-2-(3-fluorophenyl)pyrrolo[1,2-a]pyrazin-1(2H)-one]
PI3Kα IH % @ 1 uM (p110α/p85α): 27.4%
PI3Kδ IH % @ 1 uM (p110δ/p85α): >100%
pIC50 (p110δ/p85α): 9.00
PI3Kβ IH % @ 1 uM (p110β/p85α): 74.7%
pIC50 (p110β/p85α): 6.51
PI3Kγ IH % @ 1 uM (p110γ): 87.8%
pIC50 (p110γ): 7.52

SMILES: CCC(Nc1ncnc(N)c1C#N)c1cn2ccc(Cl)c2c(=O)n1-c1cccc(F)c1 (stereo not drawn) [Compound 86]
PI3Kα IH % @ 1 uM (p110α/p85α): 17.8%
PI3Kδ IH % @ 1 uM (p110δ/p85α): 99.0%
pIC50 (p110δ/p85α): 8.70
PI3Kβ IH % @ 1 uM (p110β/p85α): 86.5%
pIC50 (p110β/p85α): 6.76
PI3Kγ IH % @ 1 uM (p110γ): 76.4%
pIC50 (p110γ): 6.86

SMILES: Cc1ccn2cc(C(C)Nc3ncnc4[nH]cc(C#N)c34)n(-c3ccccc3)c(=O)c12 (stereo not drawn) [Compound 91]
PI3Kα IH % @ 1 uM (p110α/p85α): 48.3%
PI3Kδ IH % @ 1 uM (p110δ/p85α): >100%
pIC50 (p110δ/p85α): 8.30
PI3Kβ IH % @ 1 uM (p110β/p85α): 78.3%
pIC50 (p110β/p85α): 6.65
PI3Kγ IH % @ 1 uM (p110γ): 93.5%
pIC50 (p110γ): 7.47

SMILES: Cc1ccn2cc(C(C)Nc3ncnc4[nH]cnc34)n(-c3ccccc3)c(=O)c12 (stereo not drawn) [Compound 92]
PI3Kα IH % @ 1 uM (p110α/p85α): 31.8%
PI3Kδ IH % @ 1 uM (p110δ/p85α): >100%
pIC50 (p110δ/p85α): 8.52
PI3Kβ IH % @ 1 uM (p110β/p85α): 65.2%
PI3Kγ IH % @ 1 uM (p110γ): 95.7%
pIC50 (p110γ): 7.70

SMILES: CC(Nc1ncnc2[nH]cnc12)c1cc2ccc(Cl)n2c(=O)n1-c1cccc(F)c1 (stereo not drawn) [Compound 127]
PI3Kα IH % @ 1 uM (p110α/p85α): 7.0%
PI3Kδ IH % @ 1 uM (p110δ/p85α): 99.2%
pIC50 (p110δ/p85α): 8.30
PI3Kβ IH % @ 1 uM (p110β/p85α): 71.3%
pIC50 (p110β/p85α): 6.51
PI3Kγ IH % @ 1 uM (p110γ): >100%
pIC50 (p110γ): 7.24

SMILES: CC(Nc1ncnc2[nH]cc(C#N)c12)c1cc2ccc(Cl)n2c(=O)n1-c1cccc(F)c1 (stereo not drawn) [Compound 128]
PI3Kα IH % @ 1 uM (p110α/p85α): 40.3%
PI3Kδ IH % @ 1 uM (p110δ/p85α): 99.0%
pIC50 (p110δ/p85α): 9.00
PI3Kβ IH % @ 1 uM (p110β/p85α): 87.8%
pIC50 (p110β/p85α): 7.07
PI3Kγ IH % @ 1 uM (p110γ): 96.2%
pIC50 (p110γ): 8.00

SMILES: Cc1ccn2nc([C@@H]3CCCN3c3ncnc(N)c3C#N)n(-c3ccccc3)c(=O)c12 [Compound 189, (S)-4-amino-6-(2-(5-methyl-4-oxo-3-phenyl-3,4-dihydropyrrolo[2,1-f][1,2,4]triazin-2-yl)pyrrolidin-1-yl)pyrimidine-5-carbonitrile]
PI3Kα IH % @ 1 uM (p110α/p85α): 54.0%
PI3Kδ IH % @ 1 uM (p110δ/p85α): 97.5%
pIC50 (p110δ/p85α): 9.00
PI3Kβ IH % @ 1 uM (p110β/p85α): 87.0%
pIC50 (p110β/p85α): 7.06
PI3Kγ IH % @ 1 uM (p110γ): 89.2%
pIC50 (p110γ): 7.82

SMILES: CC(=O)c1cnc(N)nc1N1C[C@H](C)[C@H]1c1nn2ccc(Cl)c2c(=O)n1-c1ccc(F)cc1 [Compound 206]
pIC50 (p110α/p85α; read-out: PI3Kα IC50): 6.43
PI3Kδ IH % @ 1 uM (p110δ/p85α): 94%
pIC50 (p110δ/p85α): 8.15
PI3Kβ IH % @ 1 uM (p110β/p85α): >100%
pIC50 (p110β/p85α): 6.74
PI3Kγ IH % @ 1 uM (p110γ): >100%
pIC50 (p110γ): 9.00

Next, values leading:

PI3Kα IH % @ 1 uM (p110α/p85α): 47.8%
PI3Kδ IH % @ 1 uM (p110δ/p85α): >100%
pIC50 (p110δ/p85α): 8.52
PI3Kβ IH % @ 1 uM (p110β/p85α): 81.6%
pIC50 (p110β/p85α): 6.86
PI3Kγ IH % @ 1 uM (p110γ): >100%
SMILES: Nc1ccc(-c2c[nH]c3ncnc(N4CC[C@H]4c4nn5ccc(Cl)c5c(=O)n4-c4ccccc4)c23)cn1 [Compound 101]

PI3Kα IH % @ 1 uM (p110α/p85α): 28.4%
PI3Kδ IH % @ 1 uM (p110δ/p85α): >100%
pIC50 (p110δ/p85α): 9.00
PI3Kβ IH % @ 1 uM (p110β/p85α): >100%
pIC50 (p110β/p85α): 6.55
PI3Kγ IH % @ 1 uM (p110γ): >100%
pIC50 (p110γ): 8.00
SMILES: C[S+]([O-])c1c[nH]c2ncnc(N3CCC[C@H]3c3nn4ccc(Cl)c4c(=O)n3-c3ccccc3)c12 (stereo partly drawn) [Compound 186]

PI3Kα IH % @ 1 uM (p110α/p85α): 14.1%
PI3Kδ IH % @ 1 uM (p110δ/p85α): 99.0%
pIC50 (p110δ/p85α): 9.00
PI3Kβ IH % @ 1 uM (p110β/p85α): 84.4%
PI3Kγ IH % @ 1 uM (p110γ): >100%
SMILES: C[S+]([O-])c1c[nH]c2ncnc(N3CCC[C@H]3c3nn4ccc(Cl)c4c(=O)n3-c3ccccc3)c12 (stereo partly drawn) [Compound 187]

PI3Kα IH % @ 1 uM (p110α/p85α): 14.7%
PI3Kδ IH % @ 1 uM (p110δ/p85α): 98.8%
PI3Kβ IH % @ 1 uM (p110β/p85α): 68.7%
PI3Kγ IH % @ 1 uM (p110γ): >100%
SMILES: C[S+]([O-])c1c[nH]c2ncnc(N3CCC[C@H]3c3nn4ccc(Cl)c4c(=O)n3-c3ccccc3)c12 (stereo partly drawn) [Compound 188]

PI3Kα IH % @ 1 uM (p110α/p85α): 28.4%
PI3Kδ IH % @ 1 uM (p110δ/p85α): >100%
pIC50 (p110δ/p85α): 9.00
PI3Kβ IH % @ 1 uM (p110β/p85α): >100%
pIC50 (p110β/p85α): 6.55
PI3Kγ IH % @ 1 uM (p110γ): >100%
pIC50 (p110γ): 8.00
SMILES: C[S+]([O-])c1c[nH]c2ncnc(N3CCC[C@H]3c3nn4ccc(Cl)c4c(=O)n3-c3ccccc3)c12 (stereo partly drawn) [Compound 197]

PI3Kα IH % @ 1 uM (p110α/p85α): 17.4%
PI3Kδ IH % @ 1 uM (p110δ/p85α): >100%
pIC50 (p110δ/p85α): 9.00
PI3Kβ IH % @ 1 uM (p110β/p85α): 82.4%
pIC50 (p110β/p85α): 6.49
PI3Kγ IH % @ 1 uM (p110γ): >100%
pIC50 (p110γ): 8.00
SMILES: C[S+]([O-])c1c[nH]c2ncnc(N3CCC[C@H]3c3nn4ccc(Cl)c4c(=O)n3-c3cccc(F)c3)c12 (stereo partly drawn) [Compound 198]

PI3Kα IH % @ 1 uM (p110α/p85α): 65.2%
PI3Kδ IH % @ 1 uM (p110δ/p85α): >100%
pIC50 (p110δ/p85α): 9.00
PI3Kβ IH % @ 1 uM (p110β/p85α): 85.9%
pIC50 (p110β/p85α): 7.06
PI3Kγ IH % @ 1 uM (p110γ): >100%
pIC50 (p110γ): 8.15
SMILES: N#Cc1c[nH]c2ncnc(N3C[C@@H](F)C[C@H]3c3nn4ccc(Cl)c4c(=O)n3-c3cccc(F)c3)c12 [Compound 213]

PI3Kα IH % @ 1 uM (p110α/p85α): 38.4%
PI3Kδ IH % @ 1 uM (p110δ/p85α): >100%
pIC50 (p110δ/p85α): 8.52
PI3Kβ IH % @ 1 uM (p110β/p85α): 80.3%
pIC50 (p110β/p85α): 6.77
PI3Kγ IH % @ 1 uM (p110γ): >100%
SMILES: CC(=O)c1c[nH]c2ncnc(N3C[C@@H](F)C[C@H]3c3nn4ccc(Cl)c4c(=O)n3-c3ccccc3)c12 [Compound 268]

PI3Kα IH % @ 1 uM (p110α/p85α): 9.7%
PI3Kδ IH % @ 1 uM (p110δ/p85α): 99.7%
PI3Kβ IH % @ 1 uM (p110β/p85α): 56.4%
PI3Kγ IH % @ 1 uM (p110γ): 96.7%
SMILES: CO/N=C(\C)c1c[nH]c2ncnc(N3CCC[C@H]3c3nn4ccc(Cl)c4c(=O)n3-c3ccccc3)c12 [Compound 308]
